Measured values as given in patent publication US20040110826A1, “Receptor Antagonists” (priority 2001, published 2004).

Tests used:
[1] = system: MPTP-treated common marmoset; experiment: Anti-dyskinesia activity: LID score in MPTP-treated common marmoset model with repeated L-DOPA; assay type: in vivo; conditions: L-DOPA-induced dyskinesia (LID) score, test compound plus L-DOPA vs vehicle plus L-DOPA, 4 animals per group
Text: Parkinson's disease is characterized by degeneration and neuronal cell death of the nigrostriatal dopaminergic neurons. In primates, treatment with a dopamine neurotoxin, 1-methyl-4-phenyl-1,2,3,6-tetrahydropyridine (hereinafter referred to as “MPTP”), causes selective degeneration and loss of the nigrostriatal dopaminergic neurons, showing akinesia, rigidity, etc. These MPTP-treated primates are known as a model of Parkinson's disease [Proceedings of the National Academy of Science USA, Vol. 80, p. 4546 (1983)]. Common marmoset belongs to Anthropoidea and is known to show Parkinsonian symptoms caused by MPTP treatment as in the case of other Anthropoidea [Neuroscience Letter, Vol. 57, p. 37 (1985)). On the other hand, current treatment for Parkinson's disease is based primarily on dopamine replacement therapy by administration of L-DOPA. The administration of L-DOPA is effective treatment of symptoms associated with Parkinson's disease (anti-Parkinson activity). However, the long-term therapy using L-DOPA is known to cause loss of medicinal efficacy (wearing off and on-off), dyskinesia, psychosis, etc. Particularly, L-DOPA-induced dyskinesia (hereinafter referred to as “LID”) has become an issue due to the frequency of its development and the pain of the patients. […] 731 (1995)].
This test was carried out using 4 animals per group of female and male common marmosets of 5 to 7 years of age (300 to 375 g in body weight, CLEA Japan). MPTP (RBI) was dissolved in physiological saline for injection (Otsuka Pharmaceutical Co., Ltd.) and subcutaneously administered to each common marmoset once a day for 5 days in a dose of 2.0 mg/kg. More than six weeks after the administration, animals showing chronic symptoms of Parkinson's disease were used to prepare a model of dyskinesia. […] The locomotor activity was measured at 10-minute intervals for 12 hours by a computer-controlled automatic measuring apparatus. […]

α2C-adrenoceptor = target: T1, α2C-adrenoceptor (Homo sapiens, UniProt P18825); conditions: described in J. Pharmacol. Exp. Ther. 271, 1558 (1994) and Proc. Natl. Acad. Sci. USA 85, 6301 (1988); cited from earlier work
T1 sequence (P18825 1-462): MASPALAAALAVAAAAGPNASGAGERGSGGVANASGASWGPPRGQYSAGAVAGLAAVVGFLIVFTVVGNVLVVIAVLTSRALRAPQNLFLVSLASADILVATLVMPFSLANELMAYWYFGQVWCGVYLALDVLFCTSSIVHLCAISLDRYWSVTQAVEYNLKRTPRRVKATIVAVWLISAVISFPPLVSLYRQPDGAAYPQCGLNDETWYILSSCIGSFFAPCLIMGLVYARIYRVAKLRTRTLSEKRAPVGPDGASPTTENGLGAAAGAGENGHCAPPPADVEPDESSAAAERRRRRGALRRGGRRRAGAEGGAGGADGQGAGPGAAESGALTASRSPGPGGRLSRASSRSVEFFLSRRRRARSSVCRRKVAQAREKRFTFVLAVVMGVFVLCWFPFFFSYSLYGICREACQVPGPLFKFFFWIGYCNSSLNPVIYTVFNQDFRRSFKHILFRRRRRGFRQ

Row | Compound | anti-dyskinesia activity [1] | affinity to α2C-adrenoceptor (α2C-adrenoceptor) | melting point
1 | COc1ccccc1N1CCN(CCN2C(=O)c3ccccc3C(C)(C)C2=O)CC1 [ARC239] | showed anti-dyskinesia activity | having an affinity to α2C-adrenoceptor | –
2 | CC1c2ccccc2CN1CC1=NCCN1 (stereo not shown) [BRL44408] | did not show anti-dyskinesia activity | low affinity | –
3 | Nc1ncc(CN2CCN(Cc3ccncc3)CC2)c2nc(-c3ccco3)nn12 [Compound 35, 5-Amino-2-(2-furyl)-8-[4-(4-pyridylmethyl)piperazin-1-ylmethyl][1,2,4]triazolo[1,5-c]pyrimidine] | – | – | 168.7 to 169.2 °C
4 | c1ccc2c(c1)OCC(C1=NCCN1)O2 (stereo not shown) [idazoxan] | showed anti-dyskinesia activity | having an affinity to α2C-adrenoceptor | –
